Data as given in US11352394B2, “Cyclic cell penetrating peptides comprising beta-hairpin motifs and methods of making and using thereof” (Ohio State Innovation Foundation, priority 2016, dated 2022).
Where “and” joins values, the source holds several entries; their conditions need not be identical. Identical values can stand only once. Square brackets hold non-standard residues; d marks the D form. Peptide text beside a SMILES is read from it. 2Nal = N[C@@H](Cc1ccc2ccccc2c1)C(=O)O; NF = naphthofluorescein

How the values were obtained:
Keap1-Nrf2 interaction = Keap1-Nrf2 interaction (Homo sapiens, UniProt Q14145); experiment: Fluorescence anisotropy-based competition assay, inhibition of Keap1-Nrf2 peptide interaction; type: binding; details: for IC50: FA competition with fluorescently labeled Nrf2 peptide and Keap1; for Decrease of affinity for Keap1 / inhibition potency: Asn-Ala analogues vs Asp-Pro parents (BH13, BH15, BH17), BH19: truncation of cargo to 6-aa
Keap1-Nrf2 interaction, sequence (Q14145 321-609 limits assumed): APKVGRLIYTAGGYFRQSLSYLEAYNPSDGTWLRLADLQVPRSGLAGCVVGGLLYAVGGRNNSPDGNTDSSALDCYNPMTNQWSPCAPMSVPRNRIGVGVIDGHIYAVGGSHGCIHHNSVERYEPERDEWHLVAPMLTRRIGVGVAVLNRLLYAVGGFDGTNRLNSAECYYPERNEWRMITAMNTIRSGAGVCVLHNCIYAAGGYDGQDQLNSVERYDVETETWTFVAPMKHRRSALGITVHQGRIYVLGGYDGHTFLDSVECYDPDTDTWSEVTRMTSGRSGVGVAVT
Experimental: The percentage of inhibition was calculated from the fluorescence anisotropy decrease by using equation % Inhibition=(FAmax−FAobs)/(FAmax−FAmin)×100% and plotted against the inhibitor concentration.

HeLa cells = experiment: Cellular (cytosolic) uptake of NF-labeled peptides by flow cytometry (MFI); type: cell-based; details: HeLa cells; for Cellular Uptake (MFI^NF, %) of β-hairpin transporters: 5 μM peptide; for Cellular Uptake (MFINF, %) / Cellular Uptake (MFI^NF, %) of Keap1-Nrf2 inhibitors / Cellular entry / delivery efficiency (in words): flow cytometry; for Cellular Uptake (MFINF, %) / Cellular Uptake (MFI^NF, %) of Keap1-Nrf2 inhibitors: relative to CPP1 (100%); for Cellular Uptake (MFI^NF, %) of Keap1-Nrf2 inhibitors: NF-labeled peptide
Experimental: HeLa cells were treated with 5 μM peptide for 2 h, and their cell uptake efficiencies were determined by flow cytometry analysis. The mean fluorescence intensity (MFI) values derived from cytometry analyses reflect the amounts of peptides inside the cytosol and nucleus, whereas any NF-labeled peptide entrapped inside the acidic endosomes are invisible under the experimental conditions (Id.; Qian, Z et al. Chem. Commun. 2015, 51, 2162-2165).
The binding affinity of BH23 (unlabeled) for the Grb2 SH2 domain was then determined by examining its ability to compete with the FAM-labeled ligand for binding to the Grb2 SH2 domain by fluorescence polarization (FP). […] Next, BH23 was labeled with NF at the Asn side chain through a miniPEG-Lys linker and its cytosolic entry efficiency was quantitated by treating HeLa cells with 5 μM of the labeled peptide for 2 h before flow cytometry analysis. […] BH23 was also similarly labeled at the Asn side chain with FAM and its entry into HeLa cells was examined by live-cell confocal microscopy. […] Two control peptides (BH24 and BH25) were also prepared for cellular assays. BH24 and BH25 are structurally similar to BH23, except that BH24 contained a Tyr instead of the pY residue (FIG. 11), whereas in BH25 the two hydrophobic residues critical for cellular uptake (Nal-arg) were replaced with Ala-ala (FIG. 12).
BHT1 and BHT2 were labeled with naphthofluorescein (NF) and their cytosolic uptake into HeLa cells was determined by flow cytometry (Table 10).
Additional cell penetrating compounds were prepared and tested for cytosolic delivery. In these compounds there was no beta-hairpin turn creating moiety.

[1] = 2 h, DMEM with 10% FBS and 1% ABS, relative to CPP9 (100%)

CC(C)C[C@@H]1NC(=O)[C@H](CCC(N)=O)NC(=O)[C@H](Cc2ccccc2)NC(=O)[C@H](CCCNC(=N)N)NC(=O)[C@H](CCCNC(=N)N)NC(=O)[C@@H]2CCCN2C(=O)[C@H]2CCCN2C(=O)[C@@H](CCCNC(=N)N)NC(=O)[C@H](Cc2ccc3ccccc3c2)NC(=O)[C@H](Cc2ccccc2)NC(=O)[C@H](Cc2ccccc2)NC(=O)[C@H](CCC(=O)O)NC(=O)CNC(=O)[C@H]([C@@H](C)O)NC(=O)[C@H](CCC(=O)O)NC(=O)[C@@H]2CCCN2C(=O)[C@H](CC(=O)O)NC1=O [BH13, cyclo(F-F-Φ-r-p-P-R-R-F-Q-L-D-P-E-T-G-E)] (cyclo(FF[2Nal][dR][dP]PRRFQLDPETGE))
IC50 (Keap1-Nrf2 interaction): ~0.16 µM

CC(C)C[C@@H]1NC(=O)[C@H](CCC(N)=O)NC(=O)[C@H](Cc2ccccc2)NC(=O)[C@H](CCCNC(=N)N)NC(=O)[C@H](CCCNC(=N)N)NC(=O)[C@@H]2CCCN2C(=O)[C@H]2CCCN2C(=O)[C@@H](CCCNC(=N)N)NC(=O)[C@H](Cc2ccc3ccccc3c2)NC(=O)[C@H](Cc2ccccc2)NC(=O)[C@H](Cc2ccccc2)NC(=O)[C@H](CCC(=O)O)NC(=O)CNC(=O)[C@H]([C@@H](C)O)NC(=O)[C@H](CCC(=O)O)NC(=O)[C@H](C)NC(=O)[C@H](CC(N)=O)NC1=O [BH14, cyclo(F-F-Φ-r-p-P-R-R-F-Q-L-N-A-E-T-G-E)] (cyclo(FF[2Nal][dR][dP]PRRFQLNAETGE))
Decrease of affinity for Keap1 / inhibition potency (Keap1-Nrf2 interaction): ~10 fold
IC50 (Keap1-Nrf2 interaction): 1.4 ± 0.13 µM

CC(C)C[C@@H]1NC(=O)[C@H](Cc2ccccc2)NC(=O)[C@H](CCCNC(=N)N)NC(=O)[C@H](CCCNC(=N)N)NC(=O)[C@@H]2CCCN2C(=O)[C@H]2CCCN2C(=O)[C@@H](CCCNC(=N)N)NC(=O)[C@H](Cc2ccc3ccccc3c2)NC(=O)[C@H](Cc2ccccc2)NC(=O)[C@H](Cc2ccccc2)NC(=O)[C@H](CCC(=O)O)NC(=O)CNC(=O)[C@H]([C@@H](C)O)NC(=O)[C@H](CCC(=O)O)NC(=O)[C@H](C)NC(=O)[C@H](CC(N)=O)NC1=O [BH16, cyclo(F-F-Φ-r-p-P-R-R-F-L-N-A-E-T-G-E)] (cyclo(FF[2Nal][dR][dP]PRRFLNAETGE))
Decrease of affinity for Keap1 / inhibition potency (Keap1-Nrf2 interaction): ~10 fold

cyclo(FΦrpPRRFAQ)-miniPEG-K(NF) (cyclo(F[2Nal][dR][dP]PRRFAQ); not fully specified (residue 10); printed as cyclo(FΦrpPRRFAQ)-miniPEG-K(NF)) [BHT2]
Cellular Uptake (MFI^NF, %) of β-hairpin transporters (HeLa cells; [1]): 15% and 15 ± 2%

cyclo(R-A-F-Φ-r-p-P-R-R-F-R-A-R-Q)-miniPEG-K(NF) (cyclo(RAF[2Nal][dR][dP]PRRFRARQ); not fully specified (residue 14); printed as cyclo(R-A-F-Φ-r-p-P-R-R-F-R-A-R-Q)-miniPEG-K(NF)) [BH9]
Cellular Uptake (MFINF, %) (HeLa cells; 5 μM NF-labeled peptide, 2 h): 104 ± 27%

cyclo(S-A-S-F-Φ-r-p-P-R-R-F-S-A-S-A-Q)-miniPEG-K(NF) (cyclo(SASF[2Nal][dR][dP]PRRFSASAQ); not fully specified (residue 16); printed as cyclo(S-A-S-F-Φ-r-p-P-R-R-F-S-A-S-A-Q)-miniPEG-K(NF)) [BH11]
Cellular Uptake (MFINF, %) (HeLa cells; 5 μM NF-labeled peptide, 2 h): 245 ± 16%

cyclo(f-Φ-R-r-R-r-Q)-miniPEG-K(NF) (cyclo([dF][2Nal]R[dR]R[dR]Q); not fully specified (residue 7); printed as cyclo(f-Φ-R-r-R-r-Q)-miniPEG-K(NF)) [CPP9, reference compound]
Cellular Uptake (MFI^NF, %), cytosolic entry efficiency (HeLa cells; 5 μM NF-labeled peptide, 2 h, DMEM with 10% FBS and 1% ABS, relative to CPP9 (100%)): 100%
Cellular Uptake (MFI^NF, %) of β-hairpin transporters (HeLa cells; [1]): 100%

cyclo[F-F-Φ-r-P-p-R-R-F-Q-K(NF)-D-P-E-T-G-E] (cyclo(FF[2Nal][dR]P[dP]RRFQK(NF)DPETGE)) [BH22]
Cellular Uptake (MFI^NF, %) of Keap1-Nrf2 inhibitors (HeLa cells): 56.9%
Cellular entry, fold less efficient than BH20 (HeLa cells; -L-Pro-D-Pro- instead of -D-Pro-L-Pro-): ~2 fold

cyclo[F-F-Φ-r-p-P-R-R-F-Q-K(NF)-D-P-E-T-G-E] (cyclo(FF[2Nal][dR][dP]PRRFQK(NF)DPETGE)) [BH20]
Cellular Uptake (MFI^NF, %) of Keap1-Nrf2 inhibitors (HeLa cells): 122.4%
Cellular entry / delivery efficiency (in words) (HeLa cells): less efficiently than BH6 and BH12

cyclo[F-Φ-r-p-P-R-R-F-K(NF)-D-P-E-T-G-E] (cyclo(F[2Nal][dR][dP]PRRFK(NF)DPETGE)) [BH21]
Cellular Uptake (MFI^NF, %) of Keap1-Nrf2 inhibitors (HeLa cells): 44.6%
Cellular entry / delivery efficiency (in words) (HeLa cells): less efficiently than BH6 and BH12
